Experimental findings from ChEMBL document CHEMBL4402559, “Structure-Based Design and Pharmacokinetic Optimization of Covalent Allosteric Inhibitors of the Mutant GTPase KRASG12C” (J Med Chem, 2020) are described below.

Data set [1] can be described thus: Intrinsic clearance in human liver microsomes. The conditions noted are these: for microsomal CLint: liver microsomes, read-out: CLH. It counts as ADME, Microsome.
The target of the next data set is GTPase KRas (Homo sapiens, UniProt P01116, G12C). Briefly: Inhibition of GDP bound biotinylated human C-terminal Avi/His6-tagged KRAS G12C mutant (1 to 166 residues) expressed in Escherichia coli BL21 (DE3) assessed as reduction in SOS1-mediated GDP/GTP nucleotide exchange by preventing recognition between KRAS G12C mutant and Ras binding domain of N-terminal Avi/GST-tagged Raf-1 (51 to 149 residues) preincubated for 4 hrs followed by SOS1 and GTPgammaS addition by FRET assay.

Data set [2] in a line: Intrinsic clearance in rat hepatocytes assessed per 10^-6 cells. The data set is classed as ADME, cell-based, Hepatocyte.
A short description of data set [3]: Distribution coefficient, log D of compound at pH 7.4. The data set is classed as physicochemical. Particulars: octanol/water.
Data set [4] can be described thus: Efflux ratio of apparent permeability in human Caco2 cells at 10 uM at pH 7.4. It counts as ADME, cell-based. Particulars: Caco-2, pH 7.4.
Data set [5] is described as follows: GSH reactivity in PBS buffer assessed as half life at pH 7.4 and 37 degree C in presence of glutathione. The conditions noted are these: PBS buffer with glutathione. The data set is classed as physicochemical.
A short description of data set [6]: Volume of distribution at steady state in Han Wistar rat at 2 umol/kg, po or 1 umol/kg, iv. The conditions noted are these: in vivo.
Data set [7] can be described thus: Clearance in Han Wistar rat at 2 umol/kg, po or 1 umol/kg, iv. Particulars: in vivo.
Another data set can be described thus: in vivo. Particulars: Han Wistar, rat, po, 2 umol/kg.

SMILES strings stand for the structures.

For the molecule `C=CC(=O)N1CCN2c3c(cnc4cc(-c5c(C)ccc6[nH]ncc56)c(Cl)cc34)OCC[C@@H]2C1`, the microsomal CLint in data set [1] was 81 µL/min/mg. Moreover, the IC50 at GTPase KRas worked out at 4340 nM. In [2], the hepatocyte intrinsic clearance came to 104 µL/min.

Turning to `C=CC(=O)N1CCN2c3c(cnc4c(F)c(-c5c(O)cccc5F)c(Cl)cc34)OC[C@H]2C1` (atropisomer aR), in data set [1], the microsomal CLint was 17 µL/min/mg. In data set [3] (read-out: logD), the log distribution coefficient (logD) is 3.4. In addition, the IC50 at GTPase KRas was determined as 16 nM. The molecule also showed a hepatocyte intrinsic clearance in data set [2] of 22 µL/min.

Consider `C=CC(=O)N1CCN2c3c(cnc4c(OC)c(-c5c(O)cccc5F)c(Cl)cc34)OC[C@H]2C1` (single isomer, unassigned; atropisomer 2), for which, in data set [1], the microsomal CLint stood at 40 µL/min/mg. In addition, the logD in data set [3] (read-out: logD) amounted to 3. Further, on GTPase KRas, the half-maximal inhibitory concentration (IC50) came to 70 nM. In addition, in data set [2], the hepatocyte intrinsic clearance amounted to 56 µL/min.

For `C=CC(=O)N1CCN2c3c(cnc4cc(-c5c(O)cccc5F)c(Cl)cc34)NC(=O)[C@H]2C1`, the microsomal CLint in [1] worked out at 34 µL/min/mg. Besides, the logD in [3] (read-out: logD) was 3. On GTPase KRas, the IC50 stood at 73 nM. In data set [2], this molecule yielded a hepatocyte intrinsic clearance of 11 µL/min. For the same molecule, the efflux ratio at 10 µM in [4] is 17.9.

For `C=CC(=O)N1CCN2c3c(cnc4cc(-c5c(O)cccc5F)c(Cl)cc34)N(C)C[C@H]2C1`, the microsomal CLint in data set [1] was determined as 26 µL/min/mg. Further, the logD in [3] (read-out: logD) is 4.1. In data set [2], the hepatocyte intrinsic clearance worked out at 99 µL/min. The efflux ratio at 10 µM in [4] was 1.5.

For `C=CC(=O)N1CCN2c3c(cnc4c(F)c(-c5c(O)cccc5F)c(Cl)cc34)N(C)C(=O)[C@H]2C1`, the microsomal CLint in data set [1] amounted to 21 µL/min/mg. Further, in [5], the half-life is 15.5 h. Further, in data set [6], the Vd is 0.8 L/kg. Moreover, the logD in data set [3] (read-out: logD) came to 2.9. The clearance in [7] turned out to be 6 mL/min/kg. Besides, the hepatocyte intrinsic clearance in data set [2] worked out at 10 µL/min. In “in vivo”, this molecule gave a bioavailability of 56%. Moreover, the efflux ratio at 10 µM in [4] was 1.5.

Consider `C=CC(=O)N1CCN2c3c(cnc4cc(-c5c(C)ccc6[nH]ncc56)c(Cl)cc34)OCC[C@H]2C1`, for which the microsomal CLint in data set [1] is above 300 µL/min/mg. For the same molecule, at GTPase KRas, the IC50 worked out at 627 nM. In [2], the hepatocyte intrinsic clearance came to 102 µL/min.

With `C=CC(=O)N1CCN2c3c(cnc4cc(-c5c(O)cccc5F)c(Cl)cc34)OC[C@H]2C1`, in data set [1], the microsomal CLint was determined as 25 µL/min/mg. Further, the half-life in [5] worked out at 6.93 h. Also, the Vd in data set [6] is 1.2 L/kg. The logD in [3] (read-out: logD) amounted to 3.6. The molecule further showed a clearance in [7] of 35 mL/min/kg. The molecule also returned a hepatocyte intrinsic clearance in data set [2] of 32 µL/min. In the data set “in vivo”, this molecule had a bioavailability of 64%. The efflux ratio at 10 µM in [4] was found to be 0.5.

For the molecule `C=CC(=O)N1CCN2c3c(cnc4cc(-c5c(C)ccc6[nH]ncc56)c(Cl)cc34)OC[C@H]2C1` (single isomer, unassigned; atropisomer 1), in [1], the “Intrinsic clearance in human liver microsomes” value was found to be 165 µL/min/mg. Besides, the logD in data set [3] (read-out: logD) was found to be 4.2. Moreover, the hepatocyte intrinsic clearance in data set [2] worked out at 174 µL/min.

As for `C=CC(=O)N1C[C@@H]2COc3cnc4cc(-c5c(O)cccc5F)c(Cl)cc4c3N2C[C@@H]1C`, the microsomal CLint in data set [1] turned out to be 100 µL/min/mg. In addition, the half-life in [5] turned out to be 9.75 h. The logD in data set [3] (read-out: logD) was 3.7. Moreover, the IC50 at GTPase KRas is 7650 nM. The molecule also displayed a hepatocyte intrinsic clearance in data set [2] of 74 µL/min.

With `C=CC(=O)N1CCN2c3c(cnc4cc(-c5c(C)ccc6[nH]ncc56)c(Cl)cc34)OC[C@@H]2C1` (single isomer, unassigned; atropisomer 2), the microsomal CLint in data set [1] was 103 µL/min/mg. In addition, in data set [3] (read-out: logD), the logD worked out at 4.3. For the same molecule, on GTPase KRas, the IC50 came out at 610 nM. In data set [2], the hepatocyte intrinsic clearance was 75 µL/min.

In the case of `C=CC(=O)N1CCN(c2ncnc3cc(-c4c(C)ccc5[nH]ncc45)c(Cl)cc23)CC1`, in data set [1], the microsomal CLint came to 38 µL/min/mg. Further, the logD in [3] (read-out: logD) came out at 3.5. For the same molecule, on GTPase KRas, the IC50 was determined as 496 nM. The hepatocyte intrinsic clearance in data set [2] was 56 µL/min.

With `C=CC(=O)N1C[C@@H]2COc3cnc4cc(-c5c(O)cccc5F)c(Cl)cc4c3N2C[C@H]1C`, the microsomal CLint in data set [1] came out at 32 µL/min/mg. Further, the half-life in data set [5] amounted to 5.42 h. This molecule came in with a Vd in data set [6] of 0.6 L/kg. Also, the logD in [3] (read-out: logD) came out at 3.8. The clearance in data set [7] came to 7 mL/min/kg. Also, the IC50 on GTPase KRas amounted to 52 nM. This molecule yielded a hepatocyte intrinsic clearance in data set [2] of 42 µL/min. For the same molecule, the bioavailability in the data set “in vivo” worked out at 96%. In data set [4], the efflux ratio at 10 µM came out at 0.7.

For the molecule `C=CC(=O)N1CCN2c3c(cnc4cc(-c5c(C)ccc6[nH]ncc56)c(Cl)cc34)OC[C@@H]2C1` (single isomer, unassigned; atropisomer 1), the “Intrinsic clearance in human liver microsomes” value in data set [1] was 121 µL/min/mg. This molecule also came in with a logD in data set [3] of 4. Also, the 50% inhibitory concentration (IC50) at GTPase KRas was 8860 nM. The same molecule yielded a hepatocyte intrinsic clearance in [2] of 67 µL/min.

As for `C=CC(=O)N1CCN2c3c(cnc4cc(-c5c(O)cccc5F)c(Cl)cc34)NC[C@H]2C1`, in data set [1], the microsomal CLint was determined as 18 µL/min/mg. Also, the pH-dependent lipophilicity (logD) in [3] (read-out: logD) is 3.3. Further, the hepatocyte intrinsic clearance in data set [2] was 17 µL/min. For the same molecule, the efflux ratio at 10 µM in data set [4] amounted to 1.4.

Consider `C=CC(=O)N1CCN2c3c(cnc4c(C)c(-c5c(O)cccc5F)c(Cl)cc34)OC[C@H]2C1` (single isomer, unassigned; atropisomer), for which the microsomal CLint in data set [1] is 28 µL/min/mg. The logD in data set [3] (read-out: logD) was 3.8. The hepatocyte intrinsic clearance in [2] is 40 µL/min.

On to `C=CC(=O)N1CCN2c3c(cnc4cc(-c5c(O)cccc5F)c(Cl)cc34)N(C)C(=O)[C@H]2C1`, for which, in [1], the microsomal CLint came out at 24 µL/min/mg. In addition, the logD in data set [3] (read-out: logD) was 3. The IC50 on GTPase KRas was 150 nM. Moreover, the hepatocyte intrinsic clearance in data set [2] stood at 7 µL/min. In addition, the efflux ratio at 10 µM in data set [4] is 0.9.

In the case of `C=CC(=O)N1CCN2c3c(cnc4cc(-c5c(C)ccc6[nH]ncc56)c(Cl)cc34)OC[C@H]2C1` (single isomer, unassigned; atropisomer 2), the “Intrinsic clearance in human liver microsomes” value in data set [1] was 46 µL/min/mg. Further, the logD in [3] is given as above 4.2. For the same molecule, on GTPase KRas, the IC50 turned out to be 1380 nM. In data set [2], the hepatocyte intrinsic clearance was 65 µL/min.

A word on the IC50: it is the point on the concentration scale where inhibition reaches its midpoint. By logD is commonly meant lipophilicity at a set pH, counting ionised and neutral species. What is called efflux ratio is the permeability from basolateral to apical divided by that in the opposite direction, in the common usage. In general, half-life refers to how long it takes for the measured level to halve. Usually bioavailability stands for the share of a dose that reaches the circulation, judged against a reference dose that is usually intravenous. High values mean good availability, low ones poor availability.
